Results taken from ChEMBL document CHEMBL3638389, “Chemokine receptor antagonists” (2014).

Molecular target: C-C chemokine receptor type 2 (Homo sapiens, UniProt P41597)
Experiment: Radioligand Binding Assay: Radioligand binding assays were performed in CHO cells expressing human CCR2B and Galpha±16 coupling protein. All compounds were dissolved in DMSO and assays run at a final DMSO concentration of 0.5% (v/v). [125I]-labeled human MCP-1 was purchased from PerkinElmer. Unlabelled human MCP-1 was purchased from PeproTech.Compounds were serially diluted in DMSO before diluting into assay buffer (25 mM HEPES, pH 7.4, 5 mM MgCl2, 1 mM CaCl2, 0.5% BSA) with cryo preserved CHO cells expressing human CCR2B and the Galpha±16 coupling protein (30x10^3/well) and [125I]-MCP-1 (50 pM). The reaction was incubated at room temperature for 90 minutes before transferring to GF/C filter membrane (PerkinElmer) pre-treated with 0.3% polyethyleneimine for 2 hours at 4 C. The filter membrane was washed six times with ice cold wash buffer (25 mM HEPES, pH 7.4, 5 mM MgCl2, 1 mM CaCl2, 500 mM NaCl, 0.01% (m/v) azide), dried, and sealed in a RLB sample bag (Agilent Technologies).
Type: cell-based

C-C chemokine receptor type 2, sequence (P41597 whole entry): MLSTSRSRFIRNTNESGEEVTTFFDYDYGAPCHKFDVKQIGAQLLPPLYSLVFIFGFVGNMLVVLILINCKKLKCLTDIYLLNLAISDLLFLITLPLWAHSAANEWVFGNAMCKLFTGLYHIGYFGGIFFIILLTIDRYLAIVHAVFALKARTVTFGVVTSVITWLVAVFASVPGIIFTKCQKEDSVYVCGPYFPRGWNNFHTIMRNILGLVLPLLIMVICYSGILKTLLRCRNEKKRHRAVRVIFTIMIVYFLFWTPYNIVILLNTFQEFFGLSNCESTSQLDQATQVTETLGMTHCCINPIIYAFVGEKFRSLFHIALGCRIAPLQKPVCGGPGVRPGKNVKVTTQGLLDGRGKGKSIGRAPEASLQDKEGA

Row | Structure (SMILES) | IC50 [nM] | Ki [nM]
1 | CO[C@@H]1COCC[C@@H]1N[C@@H]1C[C@H]2CCC[C@@]2(C(=O)N2C[C@@H]3C[C@H]2CN3c2cc(C(F)(F)F)cc(C(F)(F)F)c2)C1 | 1520 | 
2 | CO[C@@H]1COCC[C@@H]1N[C@@H]1C[C@H]2CCC[C@@]2(C(=O)N2C[C@@H]3C[C@H]2CN3c2ccc(Cl)c(C(F)(F)F)c2)C1 | 17.6 | 17
